# Source: patent US20230151037A1, “GPR40 AGONISTS” (Kallyope, Inc., priority 2020, published 2023)
# Molecular target: T1, human GPR40 (Homo sapiens, UniProt O14842)
# T1 construct: host or cells: CHO-K1
# Experiment: Inositol phosphate accumulation assay (IP1 HTRF) in CHO-K1 cells expressing human GPR40
# Type: cell-based
# Details: 90 min
# Description: CHO-K1 cells expressing human GPR40 were purchased from DiscoverX (95-1005C2). HEK293 cells expressing mouse FFAR1 were prepared using a mouse FFAR1 carrying plasmid purchased from OriGene Technologies (MR222997). The cells were transfected using Lipofectamine 2000 using manufacturer instructions and stable cell line was established from a single cell using geneticine selection. Assay ready frozen (ARF) cells were prepared and used throughout the study.
# The assay was performed in a 384-well plate format using IP1 assay kit from Cis-Bio. ARF cells expressing FFAR1 (mouse and human) were thawed, washed and then plated in the appropriate medium (F12 based medium for CHO hFFAR1 and DMEM based medium for HEK293 mFFAR1-both were supplemented with 10% FBS and penicillin/streptomycin). 20 μL of 3.5×10^5 cells/mL were plated on a Poly D-Lysine coated 384-well white plate. The cells were then incubated for 16 hr at 37° C./5% CO2. After 16 hr the medium was removed and 15 μL of stimulation buffer containing the test compounds was added to the cells. The plates were then incubated for 90 min at 37° C./5% CO2. 5 μL of detection buffer (prepared as described in the IP-one kit) was added to each well and the plates were incubated at RT for 1 hr.
# […] was measured using ClarioSTAR plate reader, calculating the ratio between emissions at 665 nm and 620 nm (HTRF ratio). HTRF ratio for positive (Max) and negative (Min) controls were used to normalize HTRF data and generate values for % activity. EC50 and Max activity values were determined using a standard 4-parameter fit.
# T1 sequence (O14842 whole entry): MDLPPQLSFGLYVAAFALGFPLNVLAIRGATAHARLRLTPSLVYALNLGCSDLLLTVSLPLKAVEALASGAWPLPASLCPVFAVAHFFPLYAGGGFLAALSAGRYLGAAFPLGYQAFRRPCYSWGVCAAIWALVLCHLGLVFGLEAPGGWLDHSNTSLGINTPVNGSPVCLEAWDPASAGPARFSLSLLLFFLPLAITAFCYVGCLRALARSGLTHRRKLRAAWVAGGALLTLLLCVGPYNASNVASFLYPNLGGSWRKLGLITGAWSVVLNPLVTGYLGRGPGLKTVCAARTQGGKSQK
row,SMILES,EC50 [nM]
1,"COc1cc(-c2ccc(COc3cccc(C(CP(C)(=O)O)C4CC4)c3)cc2CN(C(C)C)C(C)C)c(F)cn1 (single isomer, unassigned) [Compound 10, (2-cyclopropyl-2-(3-((3-((diisopropylamino)methyl)-4-(5-fluoro-2-methoxypyridin-4-yl)benzyl)oxy)phenyl)ethyl)(methyl)phosphinic acid]",50 to 250
2,"COc1cc(-c2ccc(COc3cccc(C(CP(C)(=O)O)C4CC4)c3)cc2CN(C(C)C)C(C)C)c(F)cn1 (single isomer, unassigned) [Compound 12, (2-cyclopropyl-2-(3-((3-((diisopropylamino)methyl)-4-(5-fluoro-2-methoxypyridin-4-yl)benzyl)oxy)phenyl)ethyl)(methyl)phosphinic acid]",> 1000
3,"COc1cc(-c2ccc(COc3cccc(C(CS(=O)(=O)O)C4CC4)c3)cc2CN(C(C)C)C(C)C)c(F)cn1 (single isomer, unassigned) [Compound 14, 2-cyclopropyl-2-(3-((3-((diisopropylamino)methyl)-4-(5-fluoro-2-methoxypyridin-4-yl)benzyl)oxy)phenyl)ethanesulfonic acid]",> 1000
4,"COc1cc(-c2ccc(COc3cccc(C(CS(=O)(=O)O)C4CC4)c3)cc2CN(C(C)C)C(C)C)c(F)cn1 (single isomer, unassigned) [Compound 15, 2-cyclopropyl-2-(3-((3-((diisopropylamino)methyl)-4-(5-fluoro-2-methoxypyridin-4-yl)benzyl)oxy)phenyl)ethanesulfonic acid]",> 1000
5,"CCP(=O)(O)CC(c1cccc(OCc2ccc(-c3cc(OC)ncc3F)c(CN(C(C)C)C(C)C)c2)c1)C1CC1 (single isomer, unassigned) [Compound 17, (2-cyclopropyl-2-(3-((3-((diisopropylamino)methyl)-4-(5-fluoro-2-methoxypyridin-4-yl)benzyl)oxy)phenyl)ethyl)(ethyl)phosphinic acid]",> 1000
6,"CCP(=O)(O)CC(c1cccc(OCc2ccc(-c3cc(OC)ncc3F)c(CN(C(C)C)C(C)C)c2)c1)C1CC1 (single isomer, unassigned) [Compound 18, (2-cyclopropyl-2-(3-((3-((diisopropylamino)methyl)-4-(5-fluoro-2-methoxypyridin-4-yl)benzyl)oxy)phenyl)ethyl)(ethyl)phosphinic acid]",> 1000
7,"CCP(=O)(O)CC(c1cccc(OCc2ccc(-c3cc(OC)ncc3F)c(CN(C(C)C)C(C)C)c2)c1)C1CC1 (single isomer, unassigned) [Compound 19, (2-cyclopropyl-2-(3-((3-((diisopropylamino)methyl)-4-(5-fluoro-2-methoxypyridin-4-yl)benzyl)oxy)phenyl)ethyl)(ethyl)phosphinic acid]",> 1000
8,"CCP(=O)(O)CC(c1cccc(OCc2ccc(-c3cc(OC)ncc3F)c(CN(C(C)C)C(C)C)c2)c1)C1CC1 (single isomer, unassigned) [Compound 20, (2-cyclopropyl-2-(3-((3-((diisopropylamino)methyl)-4-(5-fluoro-2-methoxypyridin-4-yl)benzyl)oxy)phenyl)ethyl)(ethyl)phosphinic acid]",> 1000
9,"COc1ccc(F)c(-c2ccc(COc3cccc(C(C)CP(C)(=O)O)c3)cc2[C@@H](OC)C(C)(C)C)c1 (single isomer, unassigned) [Compound 32]",≤ 50
10,"COc1ccc(F)c(-c2ccc(COc3cccc(C(C)CP(C)(=O)O)c3)cc2[C@@H](OC)C(C)(C)C)c1 (single isomer, unassigned) [Compound 33]",≤ 50
11,"COc1cc(-c2ccc(COc3cccc(C(C)CP(C)(=O)O)c3)cc2CN(C(C)C)C(C)C)c(F)cn1 (single isomer, unassigned) [Compound 35, (2-(3-((3-((diisopropylamino)methyl)-4-(5-fluoro-2-methoxypyridin-4-yl)benzyl)oxy)phenyl)propyl)(methyl)phosphinic acid]",50 to 250
12,"COc1cc(-c2ccc(COc3cccc(C(C)CP(C)(=O)O)c3)cc2CN(C(C)C)C(C)C)c(F)cn1 (single isomer, unassigned) [Compound 36, (2-(3-((3-((diisopropylamino)methyl)-4-(5-fluoro-2-methoxypyridin-4-yl)benzyl)oxy)phenyl)propyl)(methyl)phosphinic acid]",> 1000
13,"COc1cc(-c2ccc(COc3cc(C(C)CP(C)(=O)O)ccn3)cc2[C@@H](OC)C(C)(C)C)c(F)cn1 (single isomer, unassigned) [Compound 37]",≤ 50
14,"COc1cc(-c2ccc(COc3cc(C(C)CP(C)(=O)O)ccn3)cc2[C@@H](OC)C(C)(C)C)c(F)cn1 (single isomer, unassigned) [Compound 38]",≤ 50
15,"COc1cc(-c2ccc(COc3cc(C(C)CP(C)(=O)O)ccn3)cc2CN(C(C)C)C(C)C)c(F)cn1 (single isomer, unassigned) [Compound 39, ((R)-2-(2-((3-((diisopropylamino)methyl)-4-(5-fluoro-2-methoxypyridin-4-yl)benzyl)oxy)pyridin-4-yl)propyl)(methyl)phosphinic acid or ((S)-2-(2-((3-((diisopropylamino)methyl)-4-(5-fluoro-2-methoxypyridin-4-yl)benzyl)oxy)pyridin-4-yl)propyl)(methyl)phosphinic acid]",> 1000
16,"COc1ccc(F)c(-c2ccc(COc3cc(C(C)CP(C)(=O)O)ccn3)cc2[C@@H](OC)C(C)(C)C)c1 (single isomer, unassigned) [Compound 40, ((R)-2-(2-((2′-fluoro-5′-methoxy-2-((S)-1-methoxy-2,2-dimethylpropyl)-[1,1′-biphenyl]-4-yl)methoxy)pyridin-4-yl)propyl)(methyl)phosphinic acid or ((S)-2-(2-((2′-fluoro-5′-methoxy-2-((S)-1-methoxy-2,2-dimethylpropyl)-[1,1′-biphenyl]-4-yl)methoxy)pyridin-4-yl)propyl)(methyl)phosphinic acid]",≤ 50
17,"COc1cc(-c2ccc(COc3cccc(C(CS(=O)(=O)O)C4CC4)c3)cc2CN(C(C)C)C(C)C)c(F)cn1 (stereo not shown) [Compound 1, 2-cyclopropyl-2-(3-((3-((diisopropylamino)methyl)-4-(5-fluoro-2-methoxypyridin-4-yl)benzyl)oxy)phenyl)ethanesulfonic acid]",> 1000
18,"COc1cc(-c2ccc(COc3cccc([C@H](C4CC4)[C@@](C)(F)C(=O)NS(C)(=O)=O)c3)cc2CN(C(C)C)C(C)C)c(F)cn1 [Compound 4, (2R,3S)-3-cyclopropyl-3-(3-((3-((diisopropylamino)methyl)-4-(5-fluoro-2-methoxypyridin-4-yl)benzyl)oxy)phenyl)-2-fluoro-2-methyl-N-(methylsulfonyl)propanamide]",≤ 50
19,"COc1cc(-c2ccc(COc3cccc(C(CP(=O)(O)OC)C4CC4)c3)cc2CN(C(C)C)C(C)C)c(F)cn1 (stereo not shown) [Compound 5, methyl hydrogen (2-cyclopropyl-2-(3-((3-((diisopropylamino)methyl)-4-(5-fluoro-2-methoxypyridin-4-yl)benzyl)oxy)phenyl)ethyl)phosphonate]",> 1000
20,"COc1cc(-c2ccc(COc3cccc(C(C4CC4)C(C)P(=O)(O)O)c3)cc2CN(C(C)C)C(C)C)c(F)cn1 (stereo not shown) [Compound 6, (1-cyclopropyl-1-(3-((3-((diisopropylamino)methyl)-4-(5-fluoro-2-methoxypyridin-4-yl)benzyl)oxy)phenyl)propan-2-yl)phosphonic acid]",> 1000
21,"COc1cc(-c2ccc(COc3cccc(C(C4CC4)C(C)P(=O)(O)OC)c3)cc2CN(C(C)C)C(C)C)c(F)cn1 (stereo not shown) [Compound 7, methyl hydrogen (1-cyclopropyl-1-(3-((3-((diisopropylamino)methyl)-4-(5-fluoro-2-methoxypyridin-4-yl)benzyl)oxy)phenyl)propan-2-yl)phosphonate]",> 1000
22,"COc1cc(-c2ccc(COc3cccc(C(CP(=O)(O)O)C4CC4)c3)cc2CN(C(C)C)C(C)C)c(F)cn1 (stereo not shown) [Compound 8, (2-cyclopropyl-2-(3-((3-((diisopropylamino)methyl)-4-(5-fluoro-2-methoxypyridin-4-yl)benzyl)oxy)phenyl)ethyl)phosphonic acid]",> 1000
23,"COc1cc(-c2ccc(OCc3cccc(C(CP(=O)(O)O)C4CC4)c3)cc2CN(C(C)C)C(C)C)c(F)cn1 (stereo not shown) [Compound 9, (2-cyclopropyl-2-(3-((3-((diisopropylamino)methyl)-4-(5-fluoro-2-methoxypyridin-4-yl)phenoxy)methyl)phenyl)ethyl)phosphonic acid]",> 1000
24,"COc1cc(-c2ccc(COc3cccc(C(CP(C)(=O)O)C4CC4)c3)c(CN(C(C)C)C(C)C)c2)c(F)cn1 (stereo not shown) [Compound 16, (2-cyclopropyl-2-(3-((2-((diisopropylamino)methyl)-4-(5-fluoro-2-methoxypyridin-4-yl)benzyl)oxy)phenyl)ethyl)(methyl)phosphinic acid]",> 1000
25,"COc1cc(-c2ccc(OCc3cccc(C(CP(C)(=O)O)C4CC4)c3)cc2CN(C(C)C)C(C)C)c(F)cn1 (stereo not shown) [Compound 21, (2-cyclopropyl-2-(3-((3-((diisopropylamino)methyl)-4-(5-fluoro-2-methoxypyridin-4-yl)phenoxy)methyl)phenyl)ethyl)(methyl)phosphinic acid]",50 to 250
